Measurements reported in PubChem BioAssay (NCI).
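Growth conditions: 96-well plates. Treatment: test compound, 48 hours, 5 concentrations. Analysis: linear interpolation between bracketing concentrations; unreached endpoints set to highest concentration. The concentration for 50% growth inhibition is given as GI50. TGI: concentration producing complete growth inhibition.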

Assays:
Test in all cases: NCI anticancer screen, dose series, 48 h
SN12C renal = tested on: SN12C renal
SF-268 CNS = tested on: SF-268 CNS
IGROV1 ovarian = tested on: IGROV1 ovarian
SK-MEL-28 melanoma = tested on: SK-MEL-28 melanoma
HCC-2998 colon = tested on: HCC-2998 colon
KM12 colon = tested on: KM12 colon
HCT-15 colon = tested on: HCT-15 colon
TK-10 renal = tested on: TK-10 renal
MDA-MB-231 breast = tested on: MDA-MB-231 breast
HL-60(TB) leukemia = tested on: HL-60(TB) leukemia
MDA-MB-468 breast = tested on: MDA-MB-468 breast
786-0 renal = tested on: 786-0 renal
BT-549 breast = tested on: BT-549 breast
MOLT-4 leukemia = tested on: MOLT-4 leukemia
HOP-62 NSCLC = tested on: HOP-62 NSCLC
SK-OV-3 ovarian = tested on: SK-OV-3 ovarian
NCI-H226 lung = tested on: NCI-H226 lung
NCI-H460 lung = tested on: NCI-H460 lung
DU-145 prostate = tested on: DU-145 prostate
RPMI-8226 leukemia = tested on: RPMI-8226 leukemia
EKVX NSCLC = tested on: EKVX NSCLC
OVCAR-4 ovarian = tested on: OVCAR-4 ovarian
PC-3 prostate = tested on: PC-3 prostate
NCI/ADR-RES ovarian = tested on: NCI/ADR-RES ovarian
SNB-19 CNS = tested on: SNB-19 CNS
MDA-MB-435 = tested on: MDA-MB-435
RXF 393 renal = tested on: RXF 393 renal
HT29 colon = tested on: HT29 colon

Q: `Cn1cc(-c2cc(N)n3nc(-c4cn(C)c5ccccc45)cc3n2)c2cc(Br)ccc21` was tested. Which TGI (SN12C renal) did it give?
A: 3.18 µM

Q: And the GI50 (SF-268 CNS)?
A: 2.66 µM

Q: What about the TGI (SF-268 CNS) of the same molecule?
A: 8.95 µM

Q: What about the GI50 (IGROV1 ovarian) of the same molecule?
A: 1.82 µM

Q: And the TGI (IGROV1 ovarian)?
A: 5.07 µM

Q: And the GI50 (SK-MEL-28 melanoma)?
A: 1.72 µM

Q: And the TGI (SK-MEL-28 melanoma)?
A: 3.14 µM

Q: What about the GI50 (HCC-2998 colon) of the same molecule?
A: 1.81 µM

Q: And the TGI (HCC-2998 colon)?
A: 3.49 µM

Q: And the GI50 (KM12 colon)?
A: 2.02 µM

Q: And the TGI (KM12 colon)?
A: 4.66 µM

Q: And the GI50 (HCT-15 colon)?
A: 1.71 µM

Q: And the TGI (HCT-15 colon)?
A: 4.59 µM

Q: And the GI50 (TK-10 renal)?
A: 2.19 µM

Q: And the TGI (TK-10 renal)?
A: 4.81 µM

Q: What about the GI50 (MDA-MB-231 breast) of the same molecule?
A: 1.7 µM

Q: What about the TGI (MDA-MB-231 breast) of the same molecule?
A: 3.12 µM

Q: What about the GI50 (HL-60(TB) leukemia) of the same molecule?
A: 2.08 µM

Q: What about the TGI (HL-60(TB) leukemia) of the same molecule?
A: 5.53 µM

Q: And the GI50 (MDA-MB-468 breast)?
A: 1.57 µM

Q: What about the TGI (MDA-MB-468 breast) of the same molecule?
A: 3.73 µM

Q: And the GI50 (786-0 renal)?
A: 1.57 µM

Q: And the TGI (786-0 renal)?
A: 2.99 µM

Q: And the GI50 (BT-549 breast)?
A: 2.29 µM

Q: What about the TGI (BT-549 breast) of the same molecule?
A: 5.65 µM

Q: What about the GI50 (MOLT-4 leukemia) of the same molecule?
A: 1.6 µM

Q: And the TGI (MOLT-4 leukemia)?
A: 7.55 µM

Q: And the GI50 (HOP-62 NSCLC)?
A: 2.24 µM

Q: And the TGI (HOP-62 NSCLC)?
A: 6.01 µM

Q: What about the GI50 (SK-OV-3 ovarian) of the same molecule?
A: 3.72 µM

Q: What about the TGI (SK-OV-3 ovarian) of the same molecule?
A: 17.2 µM

Q: And the GI50 (NCI-H226 lung)?
A: 25.1 µM

Q: What about the TGI (NCI-H226 lung) of the same molecule?
A: > 100 µM

Q: What about the GI50 (NCI-H460 lung) of the same molecule?
A: 1.96 µM

Q: And the TGI (NCI-H460 lung)?
A: 4.03 µM

Q: And the GI50 (DU-145 prostate)?
A: 4.96 µM

Q: And the TGI (DU-145 prostate)?
A: > 100 µM

Q: What about the GI50 (RPMI-8226 leukemia) of the same molecule?
A: 2.48 µM

Q: And the TGI (RPMI-8226 leukemia)?
A: 8.15 µM

Q: And the GI50 (EKVX NSCLC)?
A: 1.75 µM

Q: What about the TGI (EKVX NSCLC) of the same molecule?
A: 6.71 µM

Q: What about the GI50 (OVCAR-4 ovarian) of the same molecule?
A: 2.46 µM

Q: And the TGI (OVCAR-4 ovarian)?
A: 6.34 µM

Q: What about the GI50 (PC-3 prostate) of the same molecule?
A: 1.87 µM

Q: And the TGI (PC-3 prostate)?
A: 4.69 µM

Q: And the GI50 (NCI/ADR-RES ovarian)?
A: 2.45 µM

Q: What about the TGI (NCI/ADR-RES ovarian) of the same molecule?
A: 6.77 µM

Q: And the GI50 (SNB-19 CNS)?
A: 3.24 µM

Q: What about the TGI (SNB-19 CNS) of the same molecule?
A: 25.9 µM

Q: And the GI50 (MDA-MB-435)?
A: 1.87 µM

Q: And the TGI (MDA-MB-435)?
A: 3.67 µM

Q: And the GI50 (RXF 393 renal)?
A: 1.8 µM

Q: What about the TGI (RXF 393 renal) of the same molecule?
A: 3.46 µM

Q: What about the GI50 (HT29 colon) of the same molecule?
A: 1.7 µM

Q: And the TGI (HT29 colon)?
A: 3.25 µM
